In patent US20230085307A1, “PYRIDAZINONE COMPOUND AND HERBICIDE” (NISSAN CHEMICAL CORPORATION, priority 2019, published 2023):

Columns and labels:
southern crabgrass = assay: Test Example 5: herbicidal effect by foliage application, plastic box (Table 20, symbol F); format: in vivo, southern crabgrass (Digitaria ciliaris); details: foliage application; for F: southern crabgrass, herbicidal effect grade: 320 g/ha, three weeks after application
Outline: (§1)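 Plants sown in sterilized diluvial soil and grown 14 days in a greenhouse at 25° C to 30° C, then sprayed on the foliage with the compound's emulsion diluted in water to a predetermined herbicide amount. Injury to weeds and crops scored three weeks after application on a visual rating scale.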

velvetleaf [1] = assay: Test Example 4: herbicidal effect by soil treatment (Table 19, symbol M); format: in vivo, velvetleaf (Abutilon theophrasti); details: amount of applied herbicide 320 g/ha
Outline: (§2)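 Seeds were sown in sterilized diluvial soil and covered with about 1.5 cm of soil. An emulsion formulation diluted with water to a predetermined herbicide amount was sprayed evenly onto the soil surface. Plants grew in a greenhouse at 25° C. to 30° C., and the effect was scored three weeks after application using criteria from an earlier test.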

green foxtail [2] = assay: Test Example 4: herbicidal effect by soil treatment (Table 19, symbol G); format: in vivo, green foxtail (Setaria viridis); details: amount of applied herbicide 320 g/ha
Outline: as §2

persian speedwell = assay: Test Example 4: herbicidal effect by soil treatment (Table 19, symbol R); format: in vivo, Persian speedwell (Veronica persica); details: amount of applied herbicide 320 g/ha
Outline: as §2

wild oat [3] = assay: Test Example 5: herbicidal effect by foliage application, plastic box (Table 20, symbol I); format: in vivo, wild oat (Avena fatua); details: foliage application; for I: wild oat, herbicidal effect grade: 320 g/ha, three weeks after application
Outline: as §1

late watergrass = assay: Test Example 1: herbicidal activity, application before weed generation under submerged conditions (Table 16, symbol A); format: in vivo, late watergrass (Echinochloa oryzicola); details: amount of applied herbicide 320 g/ha
Outline: (§3)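 Emulsion formulation, water-diluted to set dose, was put onto the flooded surface (4 cm depth, alluvial soil) the same day weeds were sown and 2.5-leaf rice transplanted. After 3 weeks at 25-30 °C under glass, each species was rated 0 (≤5% kill) to 5 (≥90% kill).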

blackgrass [4] = assay: Test Example 5: herbicidal effect by foliage application, plastic box (Table 20, symbol J); format: in vivo, blackgrass (Alopecurus myosuroides); details: foliage application; for J: blackgrass, herbicidal effect grade: 320 g/ha, three weeks after application
Outline: as §1

velvetleaf [5] = assay: Test Example 5: herbicidal effect by foliage application, plastic box (Table 20, symbol M); format: in vivo, velvetleaf (Abutilon theophrasti); details: foliage application; for M: velvetleaf, herbicidal effect grade: 320 g/ha, three weeks after application
Outline: as §1

wild oat [6] = assay: Test Example 4: herbicidal effect by soil treatment (Table 19, symbol I); format: in vivo, wild oat (Avena fatua); details: amount of applied herbicide 320 g/ha
Outline: as §2

chickweed = assay: Test Example 5: herbicidal effect by foliage application, plastic box (Table 20, symbol P); format: in vivo, common chickweed (Stellaria media); details: foliage application; for P: chickweed, herbicidal effect grade: 320 g/ha, three weeks after application
Outline: as §1

Japanese bulrush [7] = assay: Test Example 2: herbicidal activity, application during weed generation under submerged conditions (Table 17, symbol B); format: in vivo, Japanese bulrush (Schoenoplectus juncoides); details: AAH 320 g/ha; application during weed generation, submerged conditions
Outline: (§4)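 Mixed weed seedlings in alluvial soil under a 4 cm water layer, greenhouse-grown at 25–30° C. Compound given as a diluted emulsion into the floodwater at the 1–2 leaf stage; response graded after three weeks.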

blackgrass [8] = assay: Test Example 4: herbicidal effect by soil treatment (Table 19, symbol J); format: in vivo, blackgrass (Alopecurus myosuroides); details: amount of applied herbicide 320 g/ha
Outline: as §2

Japanese bulrush [9] = assay: Test Example 1: herbicidal activity, application before weed generation under submerged conditions (Table 16, symbol B); format: in vivo, Japanese bulrush (Schoenoplectus juncoides); details: amount of applied herbicide 320 g/ha
Outline: as §3

redroot pigweed = assay: Test Example 4: herbicidal effect by soil treatment (Table 19, symbol N); format: in vivo, redroot pigweed (Amaranthus retroflexus); details: amount of applied herbicide 320 g/ha
Outline: as §2

windgrass = assay: Test Example 5: herbicidal effect by foliage application, plastic box (Table 20, symbol L); format: in vivo, windgrass (Apera spica-venti); details: foliage application; for L: windgrass, herbicidal effect grade: 320 g/ha, three weeks after application
Outline: as §1

green foxtail [10] = assay: Test Example 5: herbicidal effect by foliage application, plastic box (Table 20, symbol G); format: in vivo, green foxtail (Setaria viridis); details: foliage application; for G: green foxtail, herbicidal effect grade: 320 g/ha, three weeks after application
Outline: as §1

barnyard grass = assay: Test Example 5: herbicidal effect by foliage application, plastic box (Table 20, symbol H); format: in vivo, barnyard grass (Echinochloa crus-galli); details: foliage application; for H: barnyard grass, herbicidal effect grade: 320 g/ha, three weeks after application
Outline: as §1

Italian ryegrass [11] = assay: Test Example 5: herbicidal effect by foliage application, plastic box (Table 20, symbol K); format: in vivo, Italian ryegrass (Lolium multiflorum); details: foliage application; for K: Italian ryegrass, herbicidal effect grade: 320 g/ha, three weeks after application
Outline: as §1

Italian ryegrass [12] = assay: Test Example 4: herbicidal effect by soil treatment (Table 19, symbol K); format: in vivo, Italian ryegrass (Lolium multiflorum); details: amount of applied herbicide 320 g/ha
Outline: as §2

lambsquarters = assay: Test Example 4: herbicidal effect by soil treatment (Table 19, symbol O); format: in vivo, lambsquarters (Chenopodium album); details: amount of applied herbicide 320 g/ha
Outline: as §2

oval-leafed pondweed = assay: Test Example 2: herbicidal activity, application during weed generation under submerged conditions (Table 17, symbol C); format: in vivo, oval-leafed pondweed (Monochoria vaginalis); details: AAH 320 g/ha; application during weed generation, submerged conditions
Outline: as §4

[13] = AAH 320 g/ha, evaluated three weeks after application

SMILES | F: southern crabgrass, herbicidal effect grade (southern crabgrass) | M: velvetleaf, herbicidal effect grade (velvetleaf [1]) | G: green foxtail, herbicidal effect grade (green foxtail [2]) | R: persian speedwell, herbicidal effect grade (persian speedwell) | I: wild oat, herbicidal effect grade (wild oat [3]) | Herbicidal effect, A: late watergrass (late watergrass) | J: blackgrass, herbicidal effect grade (blackgrass [4]) | M: velvetleaf, herbicidal effect grade (velvetleaf [5]) | I: wild oat, herbicidal effect grade (wild oat [6]) | P: chickweed, herbicidal effect grade (chickweed) | herbicidal effect rating, B: Japanese bulrush (Japanese bulrush [7]) | J: blackgrass, herbicidal effect grade (blackgrass [8]) | Herbicidal effect, B: Japanese bulrush (Japanese bulrush [9]) | N: redroot pigweed, herbicidal effect grade (redroot pigweed) | L: windgrass, herbicidal effect grade (windgrass) | G: green foxtail, herbicidal effect grade (green foxtail [10]) | H: barnyard grass, herbicidal effect grade (barnyard grass) | K: Italian ryegrass, herbicidal effect grade (Italian ryegrass [11]) | K: Italian ryegrass, herbicidal effect grade (Italian ryegrass [12]) | herbicidal effect rating, C: oval-leafed pondweed (oval-leafed pondweed) | also measured
CCOc1ccc2c(-c3c(O)c(C)nn(C)c3=O)c(-c3ccc(OC)cc3)sc2c1 [3-091] | 2 (Herbicidal rate of 20% or more and less than 40%) | 0 (Herbicidal rate of 5% or less (almost no effect)) | 0 (Herbicidal rate of 5% or less (almost no effect)) | 5 (Herbicidal rate of 90% or more (almost completely withered)) | 0 (Herbicidal rate of 5% or less (almost no effect)) | 0 (Herbicidal rate of 5% or less (almost no effect)) | 3 (Herbicidal rate of 40% or more and less than 70%) | 4 (Herbicidal rate of 70% or more and less than 90%) | 0 (Herbicidal rate of 5% or less (almost no effect)) | 5 (Herbicidal rate of 90% or more (almost completely withered)) | 3 (Herbicidal rate of 40% or more and less than 70%) | 0 (Herbicidal rate of 5% or less (almost no effect)) | 4 (Herbicidal rate of 70% or more and less than 90%) | 3 (Herbicidal rate of 40% or more and less than 70%) | 0 (Herbicidal rate of 5% or less (almost no effect)) | 0 (Herbicidal rate of 5% or less (almost no effect)) | 3 (Herbicidal rate of 40% or more and less than 70%) | 0 (Herbicidal rate of 5% or less (almost no effect)) | 0 (Herbicidal rate of 5% or less (almost no effect)) | 3 (Herbicidal rate of 40% or more and less than 70%) | O: lambsquarters, herbicidal effect grade (lambsquarters): 5 (Herbicidal rate of 90% or more (almost completely withered))
CCOc1ccccc1-c1sc2cc(F)ccc2c1-c1c(O)c(C)nn(C)c1=O [3-006] | 5 (Herbicidal rate of 90% or more (almost completely withered)) | – | – | – | 5 (Herbicidal rate of 90% or more (almost completely withered)) | 5 (Herbicidal rate of 90% or more (almost completely withered)) | 5 (Herbicidal rate of 90% or more (almost completely withered)) | 5 (Herbicidal rate of 90% or more (almost completely withered)) | – | 5 (Herbicidal rate of 90% or more (almost completely withered)) | 4 (Herbicidal rate of 70% or more and less than 90%) | – | 5 (Herbicidal rate of 90% or more (almost completely withered)) | – | 5 (Herbicidal rate of 90% or more (almost completely withered)) | 5 (Herbicidal rate of 90% or more (almost completely withered)) | 5 (Herbicidal rate of 90% or more (almost completely withered)) | 5 (Herbicidal rate of 90% or more (almost completely withered)) | – | 5 (Herbicidal rate of 90% or more (almost completely withered)) | herbicidal effect, M: velvetleaf (velvetleaf [1]): 4 (Herbicidal rate of 70% or more and less than 90%); herbicidal effect, G: green foxtail (green foxtail [2]): 5 (Herbicidal rate of 90% or more (almost completely withered)); herbicidal effect, R: persian speedwell (persian speedwell): 5 (Herbicidal rate of 90% or more (almost completely withered)); herbicidal effect, I: wild oat (wild oat [6]): 4 (Herbicidal rate of 70% or more and less than 90%); herbicidal effect, J: blackgrass (blackgrass [8]): 5 (Herbicidal rate of 90% or more (almost completely withered)); herbicidal effect, N: redroot pigweed (redroot pigweed): 5 (Herbicidal rate of 90% or more (almost completely withered)); herbicidal effect, K: Italian ryegrass (Italian ryegrass [12]): 2 (Herbicidal rate of 20% or more and less than 40%); herbicidal effect, O: lambsquarters (lambsquarters): 5 (Herbicidal rate of 90% or more (almost completely withered))
CCOc1ccc2c(-c3c(O)c(C)nn(C)c3=O)c(-c3ccc(F)cc3OCC)sc2c1 [3-095] | 5 (Herbicidal rate of 90% or more (almost completely withered)) | 3 (Herbicidal rate of 40% or more and less than 70%) | 5 (Herbicidal rate of 90% or more (almost completely withered)) | 5 (Herbicidal rate of 90% or more (almost completely withered)) | 5 (Herbicidal rate of 90% or more (almost completely withered)) | 5 (Herbicidal rate of 90% or more (almost completely withered)) | 4 (Herbicidal rate of 70% or more and less than 90%) | 5 (Herbicidal rate of 90% or more (almost completely withered)) | 3 (Herbicidal rate of 40% or more and less than 70%) | 5 (Herbicidal rate of 90% or more (almost completely withered)) | 5 (Herbicidal rate of 90% or more (almost completely withered)) | 4 (Herbicidal rate of 70% or more and less than 90%) | 5 (Herbicidal rate of 90% or more (almost completely withered)) | 5 (Herbicidal rate of 90% or more (almost completely withered)) | 5 (Herbicidal rate of 90% or more (almost completely withered)) | 3 (Herbicidal rate of 40% or more and less than 70%) | 5 (Herbicidal rate of 90% or more (almost completely withered)) | 5 (Herbicidal rate of 90% or more (almost completely withered)) | 2 (Herbicidal rate of 20% or more and less than 40%) | 5 (Herbicidal rate of 90% or more (almost completely withered)) | O: lambsquarters, herbicidal effect grade (lambsquarters): 5 (Herbicidal rate of 90% or more (almost completely withered))
Cc1nn(C)c(=O)c(-c2c(-c3ccc4c(c3)OC(F)(F)O4)sc3ccc(F)cc23)c1O [2-392] | – | – | – | – | – | 3 (Herbicidal rate of 40% or more and less than 70%) | – | – | – | – | 0 (Herbicidal rate of 5% or less (almost no effect)) | – | 0 (Herbicidal rate of 5% or less (almost no effect)) | – | – | – | – | – | – | 0 (Herbicidal rate of 5% or less (almost no effect)) | F: southern crabgrass, herbicidal effect (criteria 0-5) (southern crabgrass; [13]): 4 (Herbicidal rate of 70% or more and less than 90%); herbicidal effect, M: velvetleaf (velvetleaf [1]): 1 (Herbicidal rate of 5% or more and less than 20%); herbicidal effect, G: green foxtail (green foxtail [2]): 1 (Herbicidal rate of 5% or more and less than 20%); herbicidal effect, R: persian speedwell (persian speedwell): 5 (Herbicidal rate of 90% or more (almost completely withered)); I: wild oat, herbicidal effect (criteria 0-5) (wild oat [3]; [13]): 4 (Herbicidal rate of 70% or more and less than 90%); J: blackgrass, herbicidal effect (criteria 0-5) (blackgrass [4]; [13]): 0 (Herbicidal rate of 5% or less (almost no effect)); M: velvetleaf, herbicidal effect (criteria 0-5) (velvetleaf [5]; [13]): 5 (Herbicidal rate of 90% or more (almost completely withered)); herbicidal effect, I: wild oat (wild oat [6]): 0 (Herbicidal rate of 5% or less (almost no effect)); P: chickweed, herbicidal effect (criteria 0-5) (chickweed; [13]): 5 (Herbicidal rate of 90% or more (almost completely withered)); herbicidal effect, J: blackgrass (blackgrass [8]): 0 (Herbicidal rate of 5% or less (almost no effect)); herbicidal effect, N: redroot pigweed (redroot pigweed): 3 (Herbicidal rate of 40% or more and less than 70%); L: windgrass, herbicidal effect (criteria 0-5) (windgrass; [13]): 0 (Herbicidal rate of 5% or less (almost no effect)); G: green foxtail, herbicidal effect (criteria 0-5) (green foxtail [10]; [13]): 3 (Herbicidal rate of 40% or more and less than 70%); H: barnyard grass, herbicidal effect (criteria 0-5) (barnyard grass; [13]): 5 (Herbicidal rate of 90% or more (almost completely withered)); K: Italian ryegrass, herbicidal effect (criteria 0-5) (Italian ryegrass [11]; [13]): 5 (Herbicidal rate of 90% or more (almost completely withered)); herbicidal effect, K: Italian ryegrass (Italian ryegrass [12]): 3 (Herbicidal rate of 40% or more and less than 70%); herbicidal effect, O: lambsquarters (lambsquarters): 3 (Herbicidal rate of 40% or more and less than 70%)
